Patent US5446058A, “(Fused) benz(thio)amides” (Ono Pharmaceutical Co., Ltd., priority 1984, dated 1995)

System: LTD4
Assay: Antagonistic activity on LTD4 in vitro (contraction of isolated ilem in a Magnus tube)
Details: antagonism of LTD4, guinea pig ilem, 5×10^-9 g/ml LTD4, 37° C.; read-out: IC50 (Table III, comparison of activity by alkylene chain change)
Method: Antagonistic activity of the compounds of the present invention on LTD4 were measured by the following method.
A segment of ilem (2.5 cm) was removed from guinea pig 300-400 g and suspended in a Magnus tube containing Tyrodes solution. The tube was maintained at 37° C. and aerated with 95% O2 -5% CO2. After stabilizing from 30 mins, 5×10^-9 g/ml of LTD4 was added to the Magnus tube. Contraction length at the time and contraction lengths when the compounds of the present invention were challenged at some concentrations were measured, and the IC50 value were calculated.

First: CCCCCc1ccc(CC(=O)Nc2cccc3c2OC(c2nn[nH]n2)CO3)cc1 (centres unmarked)
Second: CCCCCc1ccc(CCC(=O)Nc2cccc3c2OC(c2nn[nH]n2)CO3)cc1 (centres unmarked)
The IC50 of the first is 13-fold higher: 8300 nM for the first, 660 nM for the second.

Going from `CCCc1ccc(/C=C/C=C/C(=O)Nc2cccc3c2OC(c2nn[nH]n2)CO3)cc1` (centres unmarked) to `CCCCCc1ccc(C(=O)Nc2cccc3c2OC(c2nn[nH]n2)CO3)cc1` (centres unmarked) [drawing 40], the IC50 rises from 74 nM to 2600 nM (35-fold). The first is the more potent here.

Work on `CCCCCCCCCCCCC/C=C/C(=O)Nc1cccc2c1OC(c1nn[nH]n1)CO2` (centres unmarked) yielded an IC50 of 20000 nM.

Same assay, conditions: antagonism of LTD4, guinea pig ilem, 5×10^-9 g/ml LTD4, 37° C.; read-out: IC50 (Table IV, comparison of activity by skeleton structure change (1))

Compared with `CCCCCc1ccc(/C=C/C(=O)Nc2cccc3c2OC(c2nn[nH]n2)CO3)cc1` (centres unmarked), `CCCCCc1ccc(/C=C/C(=O)Nc2cccc3c2SC(c2nn[nH]n2)CS3)cc1` (centres unmarked) is 1.9-fold higher in IC50: 370 nM for the first, 690 nM for the second.

In the case of `CCCCCc1ccc(/C=C/C(=O)Nc2cccc3c(=O)cc(-c4nn[nH]n4)oc23)cc1`, the IC50 is reported as 30 nM.

Same assay, conditions: antagonism of LTD4, guinea pig ilem, 5×10^-9 g/ml LTD4, 37° C.; read-out: IC50 (Table V, comparison of activity by skeleton structure change (2))

Compared with `CCCCCc1ccc(C(=O)Nc2cccc3c(=O)cc(-c4nn[nH]n4)oc23)cc1`, `CCCCCc1ccc(C(=O)Nc2cccc3c2OC(c2nn[nH]n2)CO3)cc1` (centres unmarked) [drawing 49] is 14-fold higher in IC50: 180 nM for the first, 2600 nM for the second.

`CCCCCc1ccc(C(=O)Nc2cccc3c2OC(C(=O)O)CO3)cc1` (centres unmarked) showed an IC50 of 1200 nM.

Same assay, conditions: antagonism of LTD4, guinea pig ilem, 5×10^-9 g/ml LTD4, 37° C.; read-out: IC50 (Table VI, comparison of activity by skeleton structure change (3))

Compared with `CCCCCCOc1ccc(C(=O)Nc2cccc3cc(-c4nn[nH]n4)oc23)cc1` [1 (501)], `CCCCCCOc1ccc(C(=O)Nc2cccc3c2OC(c2nn[nH]n2)C3)cc1` (centres unmarked) [1 (505)] is 2.7-fold higher in IC50: 76 nM for the first, 205 nM for the second. The first is the more potent here.

Compared with `O=C(Nc1cccc2ccc(-c3nn[nH]n3)cc12)c1ccc(OCCCCc2ccccc2)cc1` [1 (514)], `O=C(Nc1cccc2ccc(-c3nn[nH]n3)nc12)c1ccc(OCCCCc2ccccc2)cc1` [1 (516)] is 1.8-fold lower in IC50: 4.6 nM for the first, 2.6 nM for the second.

Going from `C=CCCCC=CCOc1ccc(C(=O)Nc2cccc3c2OC(c2nn[nH]n2)CCO3)cc1` (centres unmarked) [1 (518)] to `O=C(Nc1cccc2c1OC(c1nn[nH]n1)CC2)c1ccc(OCCCCc2ccccc2)cc1` (centres unmarked) [1 (521)], the IC50 falls from 33 nM to 1.3 nM (25-fold).

System: not listed separately
Assay: Acute toxicity (LD50), intravenous, male mice
Details: mouse, in vivo, intravenous administration

`O=C(Nc1cccc2c1OC(c1nnn[nH]1)CO2)c1ccc(OCCCCc2ccccc2)cc1` (centres unmarked) [1(76)] and `O=C(Nc1cccc2c(=O)cc(-c3nnn[nH]3)oc12)c1ccc(OCCCCc2ccccc2)cc1` [1(230)] cannot be ordered by LD50: over 1000 mg/kg for the first, over 1000 mg/kg for the second.

`C=CCCC/C=C/COc1ccc(C(=O)Nc2cccc3c(=O)cc(-c4nn[nH]n4)oc23)cc1` [1(212)] and `C=CCCC/C=C/COc1ccc(C(=O)Nc2cc(C)cc3c(=O)cc(-c4nn[nH]n4)oc23)cc1` [1(247)] cannot be ordered by LD50: over 1000 mg/kg for the first, over 1000 mg/kg for the second.

Target: 5α-reductase
Assay: Inhibitory activity on 5α-reductase in vitro
Assay type: biochemical
Details: [4-14C]testosterone 5 μM, NADPH 5×10^-3 M, pH 7.4, 37° C., 60 mins; read-out: IC50, inhibitory activity on 5α-reductase (Table VII)
Method: Inhibitory activity of the compounds of the present invention on 5α-reductase was measured by the following method.
Inhibitory activity of the compounds of the present invention on 5α-reductase (IC50) in vitro was measured by the following method.
Compounds tested were incubated with radioactive [4-^14 C]testosterone (5 μM) and NADPH (5×10^-3 M) in the medium containing 5α-reductase, 0.09M Hepes (pH 7.4) and 0.22M sucrose at 37° C. for 60 mins. The reaction was stopped by adding solution of chloroform-methanol (1:2). The reaction mixture was centrifuged and the supernatant was separated by thin layer chromatography on silica gel using chloroform-methanol-acetic acid (99.2:0.6:0.2) as a developing solvent. Radioactivity of formed 5α-dihydrotestosterone was measured by TLC scanner. The values of IC50 were determined by the inhibition percents of 5α-reductase activity measured by the above procedure (see Endocrinal, Japon., 18, 179 (1971).).

`CCCCCc1ccc(C(C)=CC(=O)Nc2ccccc2SCCCC(=O)O)cc1` [4(206)] and `CCCCCc1ccc(C=CC(=O)Nc2ccccc2OCCCC(=O)O)cc1` [6(1)] are within 1.5-fold of each other in IC50: 4000 nM for the first, 5000 nM for the second.
